Source: patent US20020054872A1, “Peptides for the treatment of systemic lupus erythematosus and methods of treating systemic lupus erythematosus” (priority 1997, published 2002)
Residues, ends and D or L forms follow the SMILES beside them.

Key:
[1] = test system: C72 murine anti-DNA antibody; experiment: Competitive inhibition of C72 binding to 5200; design: species or system mouse; details: FIG. 2, incubation with inhibiting agent
Method: The binding of C72 to 5200 was tested before and after incubation with 5200, R38, R18, Heparin, DNA and DNase. […] The percent inhibition is the percent reduction of the O.D. after incubation with the inhibiting agent.

[2] = test system: MRL/lpr/lpr mice; experiment: Effect on clinical course of murine SLE (survival, renal histology); assay type: in vivo, mouse; details: 50 μg i.p. three times a week, from 6 weeks old, FIG. 9
Method: To test whether R38 peptides can affect the course of SLE we have tested their effect on MRL/lpr/lpr mice disease. 60 μg of 5200 (R38′ alone or in peptide combinations, 30 μg of each) in 0.1 ml PBS, was injected i.p. to 6 week old female MLR/lpr/lpr mice once a week for 16 week and the mice were evaluated for survival (FIG. 8), and for renal histology. 50 μg of 5100 (R38) or 5300 (human R38) in 0.1 ml PBS, was injected i.p. to 6 week old MRL/lpr/lpr mice three times a week and the mice were evaluated for survival (FIG. 9), and for renal histology. Control mice received 0.1 ml phosphate buffer solution. Each test and control group contained 12-15 mice.
The survival of MRL/lpr/lpr mice treated with […], 5200 or 5300 was compared to that of PBS treated mice. […] In FIGS. 8 and 9 the time in days shown on the x axis relates to the age of the mice.

[3] = test system: C72 antibody; experiment: Immunoabsorption of C72 on R38 column, anti-R38 ELISA; assay type: binding, mouse
Method: (§1) The R38 peptide was dissolved in the coupling buffer (0.2M NaHCO3, 0.5M NaCl, pH 8.3) in a concentration of 1 mg/ml in 5 ml coupling buffer. A 5 ml N-hydroxysuccinimide (NHS)-activated Sepharose™ High Performance Column (Pharmacia 17-0717-01) is used. The isopropanol in the column was washed out from the column with 30 ml of cold (4° C.) 1 mM HCl and 5 ml of the peptide solution was then injected onto the column with a syringe (2.5 ml/minute). The column was sealed and stood for 30 minutes at room temperature. The column was then washed with 30 ml Buffer A (0.5 M ethanolamine, 0.5 M NaCl, pH 8.3) and 30 ml Buffer B (0.5 M acetate, 0.5 M NaCl, pH 4) consecutively three times, and then with neutral pH buffer (0.05 M Na2HP04 and 0.1% NaN3).
(§2) The column was washed with 15 ml PBS (phosphate buffered saline), followed by 15 ml elution buffer (0.1 M glycine HCl) and then 50 ml PBS. The C72 antibody or the patients' plasma samples were filtered through a 0.45 microm filter. The samples were applied onto the column by a fitted syringe at a rate of 2.5 ml/min. The column was then washed with 5 ml PBS and the flow-through was applied to the column again. The binding of the samples (original and flow-through) to R38 was tested by the anti-R38 ELISA test.
(§3) In the instant example, the mouse C72 and the SLE patients' plasma were applied to the R38 column. Their anti-R38 binding was evaluated by ELISA in the original samples and in the flow-through of the column.

[4] = test system: anti-R38 antibodies in patients' plasma; experiment: Immunoabsorption of plasma on R38 column, anti-R38 ELISA; assay type: binding, human
Method: as §1, §2, §3

[5] = test system: C72 murine anti-DNA antibody; experiment: Direct binding ELISA of C72 to laminin peptides; design: species or system mouse; details: for binding of C72 murine anti-DNA antibody to laminin peptides: FIG. 1, C72 conditioned medium in various dilutions; for C72 Binding: direct binding ELISA test after one (1) hour
Method: The C72 murine anti-DNA antibody has been derived from (NZB×NZW)F1 lupus mice by the hybridoma technique as described in Eilat D. et al J. Immunol. […] The monoclonal anti-DNA antibodies DIL6 and B3 were derived from lupus patients by hybridoma technique as described in Ehrenstein M. R. et al J. Clin. Invest. (1994) 93 1787-1799 and Ehrenstein M. R. et al Kidney Inter. (1995) 48 705-711.
Wells were coated with 10 μg/ml of the peptides, blocked with 1% BSA (bovine serum albumin) in PBS (pH 7,4), reacted with appropriately diluted serum or urine samples or monoclonal antibodies, incubated with anti-human or anti-mouse immunoglobulin enzyme conjugated to alkaline phosphatase and detected by addition of substrate (Sigma 100 Phosphatase Substrate Tablets) and color development using an Organon Teknika Microwell System spectrometer at wavelength of 405 nm.
The interaction of the C72 murine anti-DNA antibody with laminin peptides was analyzed by ELISA as described above. The C72 conditioned medium was diluted in PBS in various dilutions.
The peptides of the present invention were tested for their ability to bind directly with C72 murine anti-DNA antibodies and B3 human anti-DNA antibodies according to the method described hereinabove.

[6] = molecular target: C72 murine anti-DNA antibody; experiment: competitive inhibition ELISA: C72 preincubated with peptide, binding to coated 5100 (R38)

## CC[C@H](C)[C@H](NC(=O)[C@H](CC(N)=O)NC(=O)[C@H](CC(C)C)NC(=O)[C@H](CC(=O)O)NC(=O)[C@H](CC(C)C)NC(=O)[C@H](CCCNC(=N)N)NC(=O)[C@@H](NC(=O)[C@H](CCCCN)NC(=O)[C@H](Cc1ccc(O)cc1)NC(=O)CNC(=O)[C@H](CCC(=O)O)NC(=O)[C@@H](N)CCCCN)C(C)C)C(=O)N[C@H](C(=O)N[C@@H](CC(C)C)C(=O)N[C@@H](CCC(=O)O)C(=O)N[C@@H](Cc1ccccc1)C(=O)N[C@@H](CCCNC(=N)N)C(=O)N[C@H](C(=O)N[C@H](C(=O)N[C@@H](CO)C(=O)N[C@@H](CCCCN)C(=O)O)[C@@H](C)O)[C@@H](C)O)[C@@H](C)O [Peptide 5100] (H-KEGYKVRLDLNITLEFRTTSK-OH; N-terminus and C-terminus assumed)
[1]
  inhibition of the binding of C72 to 5200: inhibition
[2]
  survival: significantly higher than that of control mice
[3]; C72, after immunoabsorption on R38 column
  Binding to R38 (O.D.): 0.02 O.D.
[3]; C72, original sample
  Binding to R38 (O.D.): 1.96 O.D.
[3]; mouse monoclonal C72
  anti-R38 activity removed by affinity absorption on the column: 99%
[4]; Healthy donor's plasma, after immunoabsorption
  Binding to R38 (O.D.): 0.06 O.D.
[4]; Healthy donor's plasma, original sample
  Binding to R38 (O.D.): 0.26 O.D.
[4]; SLE patient 1 plasma, after immunoabsorption
  Binding to R38 (O.D.): 0.6 O.D.
[4]; SLE patient 1 plasma, original sample
  Binding to R38 (O.D.): 1.5 O.D.
[4]; SLE patient 2 plasma, after immunoabsorption
  Binding to R38 (O.D.): 1.6 O.D.
[4]; SLE patient 2 plasma, original sample
  Binding to R38 (O.D.): 2.3 O.D.
[4]; human SLE patients' plasma
  antibodies removed by affinity absorption on the column: 30%-60%

## DNA [reference compound]
[1]
  inhibition of the binding of C72 to 5200: inhibition

## heparin [reference compound]
[1]
  inhibition of the binding of C72 to 5200: inhibition

## KATPMLKMRTSFHGCIK [Peptide R37, residues 2615-2631 of mouse laminin α chain]
[5]
  binding of C72 murine anti-DNA antibody to laminin peptides: binding

## KQNCLSSRASFRGCVRNLRLSR [Peptide R30, residues 3011-3032 of mouse laminin α chain]
[5]
  binding of C72 murine anti-DNA antibody to laminin peptides: binding

## DNase [reference compound]
[1]
  inhibition of the binding of C72 to 5200: not by a control peptide or treatment with DNase

## CC[C@H](C)[C@H](NC(=O)[C@H](CC(N)=O)NC(=O)[C@H](CC(C)C)NC(=O)[C@H](CC(=O)O)NC(=O)[C@H](CC(C)C)NC(=O)[C@H](CCCNC(=N)N)NC(=O)[C@@H](NC(=O)[C@H](CCCCN)NC(=O)[C@H](Cc1ccc(O)cc1)NC(=O)CNC(=O)[C@H](CCC(=O)O)NC(=O)[C@@H](N)CCCCN)C(C)C)C(=O)N[C@H](C(=O)N[C@@H](CC(C)C)C(=O)N[C@@H](C)C(=O)N[C@@H](Cc1ccccc1)C(=O)N[C@@H](CCCNC(=N)N)C(=O)N[C@H](C(=O)N[C@H](C(=O)N[C@@H](CO)C(=O)N[C@@H](CCCCN)C(=O)O)[C@@H](C)O)[C@@H](C)O)[C@@H](C)O [Peptide 5110] (H-KEGYKVRLDLNITLAFRTTSK-OH; N-terminus and C-terminus assumed)
[5]
  C72 Binding: 2.5 O.D.

## CC[C@H](C)[C@H](NC(=O)[C@H](CC(N)=O)NC(=O)[C@H](CC(C)C)NC(=O)[C@H](CC(=O)O)NC(=O)[C@H](CC(C)C)NC(=O)[C@H](C)NC(=O)[C@@H](NC(=O)[C@H](C)NC(=O)[C@H](Cc1ccc(O)cc1)NC(=O)CNC(=O)[C@H](CCC(=O)O)NC(=O)[C@H](C)N)C(C)C)C(=O)N[C@H](C(=O)N[C@@H](CC(C)C)C(=O)N[C@@H](CCC(=O)O)C(=O)N[C@@H](Cc1ccccc1)C(=O)N[C@@H](C)C(=O)N[C@H](C(=O)N[C@H](C(=O)N[C@@H](CO)C(=O)N[C@@H](C)C(=O)O)[C@@H](C)O)[C@@H](C)O)[C@@H](C)O [Peptide 5104] (H-AEGYAVALDLNITLEFATTSA-OH; N-terminus and C-terminus assumed)
[5]
  C72 Binding: 0.08 O.D.

## KEGYKVRLDLNTTLEFRTTSK [5200 peptide, mouse R38 analog]
[6]
  IC50: 10 µg/mL

## KEGYKVRLDLNITLEF [5101 peptide, Res. 1-16 of 5100]
[6]
  IC50: 5 µg/mL

## KEGYKVRLALNITLEFRTTSK [5109 peptide, Ala subst. of 5100 a.a. 9]
[6]
  IC50: 0.7 µg/mL

## KEGYKVRLDLNITLAFRTTSK [5110 peptide, Ala subst. of 5100 a.a. 15]
[6]
  IC50: 0.7 µg/mL

## KEGYKVELDLNITLEFRTTSK [5106 peptide, charge subst. to neg. at 5100 a.a. 7]
[6]
  IC50: 2.5 µg/mL

## KAGYKVRLALNITLAFRTTSK [5108 peptide, Ala subst. of 5100 at all negative a.a.]
[6]
  IC50: 2 µg/mL

## KEGYKVRLDLNITLEFETTSK [5107 peptide, charge subst. to neg. at 5100 a.a. 17]
[6]
  IC50: 85 µg/mL

## KEGYKVRLDLNITLEFRTTSK [R38 peptide (5100), mouse laminin alpha chain residues 2890-2910]
[6]
  IC50: 10 µg/mL

## VRLDLNITLEFR [5102 peptide, Res. 6-17 of 5100]
[6]
  IC50: 30 µg/mL
